Test system: Rattus norvegicus
Assay: Anti-inflammatory activity inRattus norvegicus albino (rat) assessed as inhibition of carrageenan-induced paw edema at 20 umol/kg, ip administered 1 hr before challenge measured after 1 hr
Assay type: functional
Conditions: not given

Row | SMILES | inhibition in vivo at 20 µmol/kg
1 | O=C1N(c2ccccc2)c2nc(CCN3CCCCC3)[nH]c(=O)c2C2C(N3CCCC3)CCCCN12 (stereo not given) | 26.8%
2 | O=C1N(c2ccccc2)c2nc(CN3CCCCC3)[nH]c(=O)c2C2C(N3CCCC3)CCCCN12 (stereo not given) | 28%
3 | O=C1N(c2ccccc2)c2nc(Cc3ccccc3Nc3c(Cl)cccc3Cl)[nH]c(=O)c2C2C(N3CCCC3)CCCCN12 (stereo not given) | 29.7%
4 | O=C1N(c2ccccc2)c2ncn(CN3CCOCC3)c(=O)c2C2C(N3CCCC3)CCCCN12 (stereo not given) | 13.1%
5 | O=C1N(c2ccccc2)c2ncn(CN3CCCCC3)c(=O)c2C2C(N3CCCC3)CCCCN12 (stereo not given) | 11.9%
6 | N#CC1=C(NC(=O)Cc2ccccc2Nc2c(Cl)cccc2Cl)N(c2ccccc2)C(=O)N2CCCCC(N3CCCC3)C12 (stereo not given) | 31.9%
7 | O=C1N(c2ccccc2)c2nc[nH]c(=O)c2C2C(N3CCCC3)CCCCN12 (stereo not given) | 11%
8 | O=C1N(c2ccccc2)c2ncnc(N3CCOCC3)c2C2C(N3CCCC3)CCCCN12 (stereo not given) | 17.7%
9 | O=C1N(c2ccccc2)c2nc(CN3CCCC3)[nH]c(=O)c2C2C(N3CCCC3)CCCCN12 (stereo not given) | 36.2%
10 | O=C1N(c2ccccc2)c2nc(-c3ccccc3O)[nH]c(=O)c2C2C(N3CCCC3)CCCCN12 (stereo not given) | 21.9%
11 | O=C1N(c2ccccc2)c2nc(CCN3CCCC3)[nH]c(=O)c2C2C(N3CCCC3)CCCCN12 (stereo not given) | 20.5%

Test system: Rattus norvegicus
Assay: Anti-inflammatory activity inRattus norvegicus albino (rat) assessed as inhibition of carrageenan-induced paw edema at 20 umol/kg, ip administered 1 hr before challenge measured after 3 hr relative to diclofenac-sodium
Assay type: functional
Conditions: not given

Row | SMILES | inhibition in vivo at 20 µmol/kg
12 | O=C1N(c2ccccc2)c2nc(CCN3CCCCC3)[nH]c(=O)c2C2C(N3CCCC3)CCCCN12 (stereo not given) | 47.3%
13 | O=C1N(c2ccccc2)c2nc(CN3CCCCC3)[nH]c(=O)c2C2C(N3CCCC3)CCCCN12 (stereo not given) | 48.4%
14 | O=C1N(c2ccccc2)c2nc(Cc3ccccc3Nc3c(Cl)cccc3Cl)[nH]c(=O)c2C2C(N3CCCC3)CCCCN12 (stereo not given) | 51.7%
15 | O=C1N(c2ccccc2)c2ncn(CN3CCOCC3)c(=O)c2C2C(N3CCCC3)CCCCN12 (stereo not given) | 34.3%
16 | O=C1N(c2ccccc2)c2ncn(CN3CCCCC3)c(=O)c2C2C(N3CCCC3)CCCCN12 (stereo not given) | 33.4%
17 | N#CC1=C(NC(=O)Cc2ccccc2Nc2c(Cl)cccc2Cl)N(c2ccccc2)C(=O)N2CCCCC(N3CCCC3)C12 (stereo not given) | 76.7%
18 | O=C1N(c2ccccc2)c2nc[nH]c(=O)c2C2C(N3CCCC3)CCCCN12 (stereo not given) | 37.8%
19 | O=C1N(c2ccccc2)c2ncnc(N3CCOCC3)c2C2C(N3CCCC3)CCCCN12 (stereo not given) | 38.6%
20 | O=C1N(c2ccccc2)c2nc(CN3CCCC3)[nH]c(=O)c2C2C(N3CCCC3)CCCCN12 (stereo not given) | 53.6%
21 | O=C1N(c2ccccc2)c2nc(-c3ccccc3O)[nH]c(=O)c2C2C(N3CCCC3)CCCCN12 (stereo not given) | 42.5%
22 | O=C1N(c2ccccc2)c2nc(CCN3CCCC3)[nH]c(=O)c2C2C(N3CCCC3)CCCCN12 (stereo not given) | 50.6%

Test system: Rattus norvegicus
Assay: Anti-inflammatory activity inRattus norvegicus albino (rat) assessed as inhibition of carrageenan-induced paw edema at 20 umol/kg, ip administered 1 hr before challenge measured after 2 hr
Assay type: functional
Conditions: not given

Row | SMILES | inhibition in vivo at 20 µmol/kg
23 | O=C1N(c2ccccc2)c2nc(CCN3CCCCC3)[nH]c(=O)c2C2C(N3CCCC3)CCCCN12 (stereo not given) | 35.7%
24 | O=C1N(c2ccccc2)c2nc(CN3CCCCC3)[nH]c(=O)c2C2C(N3CCCC3)CCCCN12 (stereo not given) | 37.2%
25 | O=C1N(c2ccccc2)c2nc(Cc3ccccc3Nc3c(Cl)cccc3Cl)[nH]c(=O)c2C2C(N3CCCC3)CCCCN12 (stereo not given) | 35.2%
26 | O=C1N(c2ccccc2)c2ncn(CN3CCOCC3)c(=O)c2C2C(N3CCCC3)CCCCN12 (stereo not given) | 18.5%
27 | O=C1N(c2ccccc2)c2ncn(CN3CCCCC3)c(=O)c2C2C(N3CCCC3)CCCCN12 (stereo not given) | 16.4%
28 | N#CC1=C(NC(=O)Cc2ccccc2Nc2c(Cl)cccc2Cl)N(c2ccccc2)C(=O)N2CCCCC(N3CCCC3)C12 (stereo not given) | 48.5%
29 | O=C1N(c2ccccc2)c2nc[nH]c(=O)c2C2C(N3CCCC3)CCCCN12 (stereo not given) | 26.8%
30 | O=C1N(c2ccccc2)c2ncnc(N3CCOCC3)c2C2C(N3CCCC3)CCCCN12 (stereo not given) | 21.2%
31 | O=C1N(c2ccccc2)c2nc(CN3CCCC3)[nH]c(=O)c2C2C(N3CCCC3)CCCCN12 (stereo not given) | 42.2%
32 | O=C1N(c2ccccc2)c2nc(-c3ccccc3O)[nH]c(=O)c2C2C(N3CCCC3)CCCCN12 (stereo not given) | 27.9%
33 | O=C1N(c2ccccc2)c2nc(CCN3CCCC3)[nH]c(=O)c2C2C(N3CCCC3)CCCCN12 (stereo not given) | 32.5%

Test system: Rattus norvegicus
Assay: Toxicity inRattus norvegicus albino (rat) assessed as ulcerogenicity at 20 umol/kg, po qd for 3 days
Assay type: organism-based
Conditions: in vivo, 72 h

Row | SMILES | UI
34 | N#CC1=C(NC(=O)Cc2ccccc2Nc2c(Cl)cccc2Cl)N(c2ccccc2)C(=O)N2CCCCC(N3CCCC3)C12 (stereo not given) | 4.1

Test system: Rattus norvegicus
Assay: Anti-inflammatory activity inRattus norvegicus albino (rat) assessed as inhibition of carrageenan-induced paw edema at 20 umol/kg, ip administered 1 hr before challenge measured after 3 hr
Assay type: functional
Conditions: not given

Row | SMILES | inhibition in vivo at 20 µmol/kg
35 | O=C1N(c2ccccc2)c2nc(CCN3CCCCC3)[nH]c(=O)c2C2C(N3CCCC3)CCCCN12 (stereo not given) | 41.4%
36 | O=C1N(c2ccccc2)c2nc(CN3CCCCC3)[nH]c(=O)c2C2C(N3CCCC3)CCCCN12 (stereo not given) | 42.4%
37 | O=C1N(c2ccccc2)c2nc(Cc3ccccc3Nc3c(Cl)cccc3Cl)[nH]c(=O)c2C2C(N3CCCC3)CCCCN12 (stereo not given) | 45.3%
38 | O=C1N(c2ccccc2)c2ncn(CN3CCOCC3)c(=O)c2C2C(N3CCCC3)CCCCN12 (stereo not given) | 30.1%
39 | O=C1N(c2ccccc2)c2ncn(CN3CCCCC3)c(=O)c2C2C(N3CCCC3)CCCCN12 (stereo not given) | 29.3%
40 | N#CC1=C(NC(=O)Cc2ccccc2Nc2c(Cl)cccc2Cl)N(c2ccccc2)C(=O)N2CCCCC(N3CCCC3)C12 (stereo not given) | 67.2%
41 | O=C1N(c2ccccc2)c2nc[nH]c(=O)c2C2C(N3CCCC3)CCCCN12 (stereo not given) | 33.1%
42 | O=C1N(c2ccccc2)c2ncnc(N3CCOCC3)c2C2C(N3CCCC3)CCCCN12 (stereo not given) | 33.8%
43 | O=C1N(c2ccccc2)c2nc(CN3CCCC3)[nH]c(=O)c2C2C(N3CCCC3)CCCCN12 (stereo not given) | 48.7%
44 | O=C1N(c2ccccc2)c2nc(-c3ccccc3O)[nH]c(=O)c2C2C(N3CCCC3)CCCCN12 (stereo not given) | 37.2%
45 | O=C1N(c2ccccc2)c2nc(CCN3CCCC3)[nH]c(=O)c2C2C(N3CCCC3)CCCCN12 (stereo not given) | 44.3%
